Results reported in US8071652B2, “Method of treating irritable bowel syndrome” (The Board of Regents of the University of Texas System, priority 2003, dated 2011).
Entries after “also recorded” stand apart in the source; their conditions may differ.

Experiments:
sensitized rats = experiment: Colorectal distention (CRD) sensitivity in visceral sensitization model; type: in vivo, rat
Description: New born rats were sensitized by infusion of 0.2 mls of 0.5% acetic acid into the colon at P10, control animals received saline.
At eight weeks of age, rats in four treatment groups: control+vehicle (n=3), control+cni-1493 (n=3), sensitized+vehicle (n=8), sensitized+cni-1493 (n=8) were tested after administration of drug (dissolved in 2.5% mannitol, injected i.p. at 5mg/kg for four days) for sensitivity to colorectal distention (CRD). Vehicle injected animals received 2.5% mannitol in water.
For electromyographic (EMG) measurements of visceromotor responses, under anesthesia (Nembutal, 50 mg/kg i.p.), two electrodes were implanted in the abdominal wall muscles and externalized behind the head. Rats were allowed a one week recovery time from this surgery. Under mild sedation (Brevital, […]), a 7 cm flexible balloon constructed from a surgical glove finger attached to tygon tubing was inserted into the descending colon and rectum via the anus and held in place by taping the tubing to the tail. Rats were housed in small Lucite cubicles (20×8×8 cm) and were allowed to adapt for one hour. CRD was performed by rapidly inflating the balloon to constant pressure. Pressure was measured using a sphygmomanometer connected to a pressure transducer. Rats were given graded CRD (20, 40, 60, 80 mm Hg) applied for 20 seconds every 4 minutes. […]

Myeloperoxidase (MPO) = Myeloperoxidase (MPO) assay of colon extracts; type: in vivo, rat; conditions: sensitized rats, 5 mg/kg i.p. for four days
Description: Descending colons were placed in 10% buffered formalin and portions were frozen for myeloperoxidase (MPO) assays. Haematoxilin & Eosin stained parafin sections will be scored for inflammation by a pathologist.
Myeloperoxidase (MPO) assays were performed as described (Bhatia et al., Proc Natl Acad Sci USA 95:4760-4756, 1998). Frozen colon was homogenized in 20 mM phosphate buffer pH 7.4 and cetrifuged at 10,000× g for 10 minutes at 4° C. Pellet was resuspended in 50 mM phosphate buffer, pH 6.0 containing 0.5% hexadecyltrimethylammonium bromide. Samples were subjected to one cycle of freeze thawing, were incubated at 6° C. for 2 hrs and cetrifuged at 10,000× g for 5 min at 4° C. Change in absorbance at 655 nm was measured in reaction mix containing 1.6 mM TMB (Sigma) and 0.3 mM H2O2 on a Beckman DU-64 spectrophotometer. Activity was normalized to protein as measured in the extracts. Protein was measured by the BCA method (Pierce, Rockford, Ill.). Activity was expressed as the change in absorbance/min/mg protein.

SMILES: CC(=NN=C(N)N)c1cc(NC(=O)CCCCCCCCC(=O)Nc2cc(C(C)=NN=C(N)N)cc(C(C)=NN=C(N)N)c2)cc(C(C)=NN=C(N)N)c1.Cl.Cl.Cl.Cl [CNI-1493, N,N′-bis[3,5-diacetylphenl] decanediamidetetrakis[amidinohydrazone] tetrahvdrochloride]
- Chronic visceral hypersensitivity (CVH) (sensitized rats; sensitized animals, CNI1493 treatment): ameliorates CVH
- Sensitivity to CRD (sensitized rats; sensitized rats, 5 mg/kg i.p. for four days, graded CRD, vs vehicle, 5 mg/kg): significant effect; also recorded: significantly reduced
- MPO activity in colon (Myeloperoxidase (MPO)): significantly lowered
